# In patent publication US12371414B2, “Methods of treating neurological disorders” (NEUMORA THERAPEUTICS, INC., priority 2022, dated 2025):
# Columns and labels:
# [1] = molecular target: T1, CK-1δ (Homo sapiens, UniProt P48730); assay: Cellular target engagement (NanoBRET) competition assay; format: cell-based; parameters: expressed in transfected cells; host or cells: 293T-HEK cells; details: NanoLuc-tagged kinase in 293T-HEK cells, tracer displacement; read-out: NanoBRET CK-1d IC50
# Experimental: The cell based CK-1δ target engagement assay is a NanoBRET competition assay that directly quantifies compound binding to full length kinases in live cells (Robers M et al. Nat. Comm. No 6 (2015)). The assay utilizes a cell permeable fluorescent tracer that reversibly binds to a NanoLuc-tagged kinase expressed in 293T-HEK cells. Intracellular target engagement of an unmodified test compound was measured by competitive displacement of the tracer resulting in a loss of bioluminescence energy transfer (BRET) that was quantified on a microplate-based luminometer.
# (§1) The IC50 ranges are as follows: for NanoBRET IC50 (nM), A denotes <400 nM; B denotes 400 nM≤KD<800 nM; C denotes KD≥800 nM. For the biochemical kinase assay IC50 (nM), A denotes <50 nM; B denotes 50 nM≤IC50<100 nM; C denotes ≥100 nM.
# [2] = molecular target: T1, CK-1δ; assay: Biochemical kinase assay (HotSpot radioisotope filter binding, Reaction Biology); parameters: purchased Reaction Biology; details: read-out: Biochemical Kinase Assay CK-1d IC50
# Experimental: Biochemical inhibition of CK-1δ and kinome selectivity was assessed using a HotSpot radioisotope filter binding assay (Reaction Biology). In the HotSpot assay, compounds were incubated with the kinase, substrate, cofactors, and radioisotope-labeled ATP. The reaction mixtures are then spotted onto filter papers, which bind the radioisotope-labeled catalytic product that can be quantified.
# as §1
# T1 sequence (P48730 whole entry): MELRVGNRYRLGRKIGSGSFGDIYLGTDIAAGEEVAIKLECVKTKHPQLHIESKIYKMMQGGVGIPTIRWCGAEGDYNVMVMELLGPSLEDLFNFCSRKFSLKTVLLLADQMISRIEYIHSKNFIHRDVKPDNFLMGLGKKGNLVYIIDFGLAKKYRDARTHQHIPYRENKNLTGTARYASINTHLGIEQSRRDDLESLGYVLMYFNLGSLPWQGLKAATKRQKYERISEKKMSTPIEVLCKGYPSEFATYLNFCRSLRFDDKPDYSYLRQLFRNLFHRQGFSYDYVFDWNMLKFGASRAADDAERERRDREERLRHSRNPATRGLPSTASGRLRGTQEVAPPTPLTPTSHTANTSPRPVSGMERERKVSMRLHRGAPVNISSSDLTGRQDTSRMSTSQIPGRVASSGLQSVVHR
IC50 [1] [nM],IC50 [2] [nM],SMILES
400 to 800,< 50,"CNc1nc(-c2ccncc2)c(-c2ccc(Cl)cc2)c(=O)n1C [Compound 1, 5-(4-chlorophenyl)-3-methyl-2-(methylamino)-6-(pyridin-4-yl)pyrimidin-4(3H)-one]"
< 400,< 50,"CC(C)Cc1nc(-c2ccncc2)c(-c2ccc(Cl)cc2)c(=O)[nH]1 [Compound 2, 5-(4-chlorophenyl)-2-isobutyl-6-(pyridin-4-yl)pyrimidin-4(3H)-one]"
< 400,50 to 100,"Cc1cc(-c2nc(CC(C)C)[nH]c(=O)c2-c2ccc(Cl)cc2F)ccn1 [Compound 3, 5-(4-chloro-2-fluorophenyl)-2-isobutyl-6-(2-methylpyridin-4-yl)pyrimidin-4(3H)-one]"
